According to ChEMBL document CHEMBL1147056, “Potentiation of mammary cancer inhibition by combination of antagonists of growth hormone-releasing hormone with docetaxel” (Proc Natl Acad Sci U S A, 2007):
One block for each compound: values may come before it.

Key:
MX1 [1] = assay: Antitumor activity against human MX1 cells xenografted athymic nude Ncr nu/nu mouse assessed as inhibition of tumor weight at 10 ug/day, sc after 3 weeks; format: functional
MX1 [2] = assay: Antitumor activity against human MX1 cells xenografted athymic nude Ncr nu/nu mouse assessed as inhibition of tumor volume at 10 ug/day, sc after 3 weeks; format: functional
Mus musculus [3] = assay: Toxicity in human MX1 cells xenografted athymic nude Ncr nu/nu mouse assessed as body weight at 10 ug/day, sc after 24 days relative to control; format: organism-based; settings: in vivo, 576 h
MX1 [4] = assay: Antitumor activity against human MX1 cells xenografted athymic nude Ncr nu/nu mouse assessed as inhibition of tumor weight at 20 mg/kg, ip after 15 days; format: functional; settings: 360 h, route intraperitoneal
MX1 [5] = assay: Antitumor activity against human MX1 cells xenografted athymic nude Ncr nu/nu mouse assessed as inhibition of tumor volume at 20 mg/kg, ip after 8 days; format: functional; settings: 192 h, route intraperitoneal
[6] = target: T1, Growth hormone-releasing hormone receptor (Homo sapiens, UniProt Q02643); assay: Displacement of [125I]JV1-42 from GHRH receptor expressed in human MX1 cells; format: cell-based
T1 sequence (Q02643 whole entry): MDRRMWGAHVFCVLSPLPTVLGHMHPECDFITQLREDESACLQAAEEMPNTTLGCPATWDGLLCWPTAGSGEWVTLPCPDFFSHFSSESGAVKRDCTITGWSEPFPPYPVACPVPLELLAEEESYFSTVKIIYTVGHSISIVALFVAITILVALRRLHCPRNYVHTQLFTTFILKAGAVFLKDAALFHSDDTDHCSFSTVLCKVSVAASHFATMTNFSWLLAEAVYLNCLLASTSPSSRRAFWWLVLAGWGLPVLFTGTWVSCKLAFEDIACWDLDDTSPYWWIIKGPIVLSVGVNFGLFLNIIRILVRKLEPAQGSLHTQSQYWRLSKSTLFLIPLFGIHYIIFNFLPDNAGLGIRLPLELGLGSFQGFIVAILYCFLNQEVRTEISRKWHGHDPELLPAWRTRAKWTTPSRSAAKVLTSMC

MX1 [7] = assay: Antitumor activity against human MX1 cells xenografted athymic nude Ncr nu/nu mouse assessed as inhibition of tumor volume at 20 mg/kg, ip after 3 weeks; format: functional; settings: 504 h, route intraperitoneal
[8] = target: Epidermal growth factor receptor (Homo sapiens, UniProt P00533); assay: Displacement of radiolabeled EGF from EGF receptor expressed in human MX1 cells; format: cell-based
Mus musculus [9] = assay: Toxicity in human MX1 cells xenografted athymic nude Ncr nu/nu mouse assessed as body weight at 20 mg/kg, ip after 24 days relative to control; format: organism-based; design: dose 20 mg/kg, route intraperitoneal; settings: in vivo, 576 h

Chain of Epidermal growth factor receptor (P00533 whole entry): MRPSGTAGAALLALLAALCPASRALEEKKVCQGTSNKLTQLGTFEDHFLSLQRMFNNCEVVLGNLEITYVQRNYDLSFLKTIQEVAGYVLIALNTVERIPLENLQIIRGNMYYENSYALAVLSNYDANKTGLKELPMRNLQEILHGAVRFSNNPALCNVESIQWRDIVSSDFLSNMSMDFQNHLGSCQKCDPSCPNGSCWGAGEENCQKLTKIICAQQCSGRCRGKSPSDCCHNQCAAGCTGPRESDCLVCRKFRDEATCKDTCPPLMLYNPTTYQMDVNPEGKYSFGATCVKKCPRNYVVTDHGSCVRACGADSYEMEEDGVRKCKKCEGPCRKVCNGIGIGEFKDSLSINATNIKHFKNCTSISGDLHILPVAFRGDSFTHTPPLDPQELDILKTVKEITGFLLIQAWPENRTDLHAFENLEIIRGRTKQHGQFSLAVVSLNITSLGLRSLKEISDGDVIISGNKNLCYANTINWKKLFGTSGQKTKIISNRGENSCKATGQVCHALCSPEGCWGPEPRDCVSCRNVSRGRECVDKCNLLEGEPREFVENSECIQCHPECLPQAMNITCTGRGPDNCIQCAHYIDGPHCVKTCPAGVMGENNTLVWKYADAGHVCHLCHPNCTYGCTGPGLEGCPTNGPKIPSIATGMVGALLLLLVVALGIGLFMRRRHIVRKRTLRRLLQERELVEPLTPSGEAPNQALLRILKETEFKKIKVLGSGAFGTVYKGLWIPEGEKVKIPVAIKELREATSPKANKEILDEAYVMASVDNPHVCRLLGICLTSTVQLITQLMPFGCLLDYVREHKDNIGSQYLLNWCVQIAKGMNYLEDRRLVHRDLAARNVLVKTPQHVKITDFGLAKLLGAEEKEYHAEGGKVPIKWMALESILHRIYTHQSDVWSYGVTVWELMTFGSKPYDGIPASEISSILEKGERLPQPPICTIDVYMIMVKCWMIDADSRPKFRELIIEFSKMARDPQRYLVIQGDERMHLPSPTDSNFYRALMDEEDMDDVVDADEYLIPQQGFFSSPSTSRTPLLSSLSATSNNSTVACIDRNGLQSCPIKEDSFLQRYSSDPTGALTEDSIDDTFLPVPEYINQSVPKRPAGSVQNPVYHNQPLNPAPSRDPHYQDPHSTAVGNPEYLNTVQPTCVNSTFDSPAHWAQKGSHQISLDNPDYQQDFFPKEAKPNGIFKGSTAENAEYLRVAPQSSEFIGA

SMILES: CCCC[C@H](NC(=O)[C@@H](NC(=O)[C@H](CC(=O)O)NC(=O)[C@H](CCC(N)=O)NC(=O)[C@H](CC(C)C)NC(=O)[C@H](CC(C)C)NC(=O)[C@H](CCCCN)NC(=O)[C@H](Cc1cnc[nH]1)NC(=O)[C@H](C)NC(=O)[C@H](CO)NC(=O)[C@H](CC(C)C)NC(=O)[C@H](CCC(N)=O)NC(=O)[C@H](CC)NC(=O)[C@H](CC(C)C)NC(=O)[C@@H](NC(=O)[C@H](CCCCN)NC(=O)[C@H](Cc1cnc[nH]1)NC(=O)[C@H](Cc1ccc(OC)cc1)NC(=O)[C@H](CCCCNC(=N)N)NC(=O)[C@H](C)NC(=O)[C@@H](NC(=O)[C@H](Cc1ccc(Cl)cc1)NC(=O)[C@@H](NC(=O)[C@H](C)NC(=O)[C@H](CC(=O)O)NC(=O)[C@@H](CCCNC(=N)N)NC(=O)[C@H](Cc1ccc(O)cc1)NC(=O)Cc1ccccc1)[C@@H](C)CC)[C@@H](C)O)C(C)C)[C@@H](C)CC)C(=O)N[C@H](CCCNC(=N)N)C(=O)N[C@@H](CCCCNC(=N)N)C(N)=O [listing 1 of 2 here]
Inhibition (MX1 [1]): 47.8% | Inhibition (MX1 [2]): 62.9%

SMILES: CCCC[C@H](NC(=O)[C@@H](NC(=O)[C@H](CC(=O)O)NC(=O)[C@H](CCC(N)=O)NC(=O)[C@H](CC(C)C)NC(=O)[C@H](CC(C)C)NC(=O)[C@H](CCCCN)NC(=O)[C@H](Cc1cnc[nH]1)NC(=O)[C@H](C)NC(=O)[C@H](CO)NC(=O)[C@H](CC(C)C)NC(=O)[C@H](CCC(N)=O)NC(=O)[C@H](CC)NC(=O)[C@H](CC(C)C)NC(=O)[C@@H](NC(=O)[C@H](CCCCN)NC(=O)[C@H](Cc1cnc[nH]1)NC(=O)[C@H](Cc1ccc(OC)cc1)NC(=O)[C@H](CCCCNC(=N)N)NC(=O)[C@H](C)NC(=O)[C@@H](NC(=O)[C@H](Cc1ccc(Cl)cc1)NC(=O)[C@@H](NC(=O)[C@H](C)NC(=O)[C@H](CC(=O)O)NC(=O)[C@@H](CCCNC(=N)N)NC(=O)[C@H](Cc1ccc(O)cc1)NC(=O)Cc1ccccc1)[C@@H](C)CC)[C@@H](C)O)C(C)C)[C@@H](C)CC)C(=O)N[C@H](CCCNC(=N)N)C(=O)N[C@@H](CCCCNC(=N)N)C(N)=O [listing 2 of 2 here]
Activity (Mus musculus [3]): 24.6 g

IC50 [6]: 0.14 nM | Bmax [8]: 278 fmol/mg | Kd [8]: 0.82 nM
SMILES: CC(=O)O[C@@]12CO[C@@H]1C[C@H](O)[C@@]1(C)C(=O)[C@H](O)C3=C(C)[C@@H](OC(=O)[C@H](O)[C@@H](NC(=O)OC(C)(C)C)c4ccccc4)C[C@@](O)([C@@H](OC(=O)c4ccccc4)[C@H]21)C3(C)C.O.O.O [DOCETAXEL]
inhibition in vivo at 20 mg/kg (MX1 [4]): 58.6% | inhibition in vivo at 20 mg/kg (MX1 [5]): 29% | inhibition in vivo at 20 mg/kg (MX1 [7]): 74.1% | Activity (Mus musculus [9]): 24 g

Bmax [8]: 92.4 fmol/mg | Kd [8]: 0.94 nM | inhibition ([8]; concentration not given here): 68%
SMILES: CC[C@H](NC(=O)[C@H](CC(C)C)NC(=O)[C@@H](NC(=O)[C@H](CCCCN)NC(=O)[C@H](Cc1cnc[nH]1)NC(=O)[C@H](Cc1ccc(C)cc1)NC(=O)[C@H](CCCCNC(=N)N)NC(=O)[C@H](C)NC(=O)[C@@H](NC(=O)[C@H](Cc1ccc(Cl)cc1)NC(=O)[C@@H](NC(=O)[C@H](C)NC(=O)[C@H](CC(=O)O)NC(=O)[C@@H](CCCNC(=N)N)NC(=O)[C@H](Cc1ccc(O)cc1)NC(=O)Cc1ccccc1)[C@@H](C)CC)[C@@H](C)O)C(C)C)C(=O)N[C@@H](CCC(N)=O)C(=O)N[C@@H](CC(C)C)C(=O)N[C@@H](CO)C(=O)N[C@@H](C)C(=O)N[C@@H](Cc1cnc[nH]1)C(=O)N[C@@H](CCCCN)C(=O)N[C@@H](CC(C)C)C(=O)N[C@@H](CC(C)C)C(=O)N[C@@H](CCC(N)=O)C(=O)N[C@@H](CC(=O)O)C(=O)N[C@H](C(=O)N[C@H](C(=O)N[C@H](CCCNC(=N)N)C(=O)N[C@@H](CCCCNC(=N)N)C(N)=O)[C@@H](C)CC)[C@@H](C)CC
